In general, EC50 refers to the concentration at which the effect is half-maximal.

The test deals with T1, TRPML1 (Homo sapiens, UniProt Q9GZU1).
T1 construct: expressed in transfected cells
T1 sequence (Q9GZU1 whole entry): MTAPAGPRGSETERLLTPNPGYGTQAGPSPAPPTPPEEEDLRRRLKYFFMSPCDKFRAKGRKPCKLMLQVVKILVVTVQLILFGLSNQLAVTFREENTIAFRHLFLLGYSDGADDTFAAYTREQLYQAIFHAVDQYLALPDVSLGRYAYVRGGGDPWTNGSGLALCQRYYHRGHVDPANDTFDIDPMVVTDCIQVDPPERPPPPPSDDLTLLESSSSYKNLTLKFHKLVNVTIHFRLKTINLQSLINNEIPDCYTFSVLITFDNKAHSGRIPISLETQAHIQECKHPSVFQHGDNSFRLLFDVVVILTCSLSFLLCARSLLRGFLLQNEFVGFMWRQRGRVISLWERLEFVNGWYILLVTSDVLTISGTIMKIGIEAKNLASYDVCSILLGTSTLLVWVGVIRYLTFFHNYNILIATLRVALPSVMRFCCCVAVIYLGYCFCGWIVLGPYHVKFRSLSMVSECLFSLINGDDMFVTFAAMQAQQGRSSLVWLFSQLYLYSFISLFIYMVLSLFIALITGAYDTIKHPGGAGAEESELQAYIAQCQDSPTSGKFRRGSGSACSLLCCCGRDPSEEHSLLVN
Description: Cellular TRPML1 assay (FLIPR TETRA, GCaMP6f calcium read-out). The class given is cell-based. The following applies: HEK T-REx/GCaMP6f/TRPML1 cells; Ca2+ response over 300 s, normalized to ML-SA1 50 μM; Ca2+ free or Optimem condition not given; read-out: Ec50 (Activity of TRPML1 agonists). Here is the method: Buffers and reagents • PBS (D-PBS without calcium and magnesium; EuroClone) • Trypsin (Trypsin 0.05%, EDTA 0.02% in PBS; EuroClone) • DMSO (Sigma) • Ca^2+ free Tyrode's buffer: in-house solution (130 mM NaCl, 5 mM KCl, 1 mM MgCl2, 5 mM NaHCO3, 20 mM HEPES in water at pH 7.4; sterile filtered). • Opti-MEM (Gibco) • Agonist: ML-SA1 (Sigma); stock: 60 mM in DMSO, stored at −20° C. • Blocker: ML-SI3 (in house synthesis); stock: 20 mM in DMSO, stored at −20° C.
The final clone for the TRPML1 assay is HEK T-REx/GCaMP6f/TRPML1.
GCaMP6f is a genetically encoded calcium indicator that is stably expressed in this cell line and used as a fluorescent read-out.
Experiments are performed in 384 MTP format. Cells are seeded at 15000 cells/well either in 25 μl/well of growth medium or in 20 μl/well of Optimem+0.5% FBS without selection antibiotics. Twenty-four hours later, cells are assayed for the response to various compounds using the Ca^2+ sensitive GCaMP6f protein stably expressed in the cells as readout.
The experiment is performed in a 384-well format according to the following procedures for either Ca^2+ free or Optimem conditions: • Ca^2+ free condition (in absence of extracellular Ca^2+): • 24 h after seeding, pre-incubate the cells at room temperature for about 10′. • Then remove the culture medium and replace it with 20 μL of Ca^2+ free Tyrode's buffer. • Start the experiment at the FLIPR^TETRA by injecting 10 μL/w of 3× concentrated test compounds and controls in Ca^2+ free Tyrode's buffer. Monitor the kinetic response over a period of 300 seconds. • Final DMSO concentration: 0.5% • Optimem condition (in presence of extracellular Ca^2+): • 24 h after seeding, pre-incubate the cells at room temperature for about 10′. • Start the experiment at the FLIPR^TETRA by injecting 10 μL/w of 3× concentrated test compounds and controls in Ca^2+ free Tyrode's buffer. Monitor the kinetic response over a period of 300 seconds. • Final DMSO concentration: 0.5%
Data from FLIPR^TETRA measurements are analyzed with the Genedata Screener® software.
Stimulator controls (Col 2): injection of ML-SA1 EC100 (50 μM) in alternated wells positions
Neutral controls (Col 2): injection of 0 mM Ca^2+ free Tyrode's buffer in alternated wells positions.
Test wells (Col 3-22): test compounds dose response curve from either 100 μM with 1:2 dilution steps or from 50 μM with 1:3.16 dilution steps.
For the molecule `Cc1cc(C)cc(S(=O)(=O)Nc2ccccc2N2CCN(C(=O)OC(C)(C)C)CC2)c1` [Example 54, tert-butyl 4-(2-((3,5-dimethylphenyl)sulfonamido)phenyl)piperazine-1-carboxylate], the concentration for a half-maximal effect (EC50) came out at 20 µM.
In the case of `CN(C)S(=O)(=O)c1ccc(S(=O)(=O)NC2CCCCC2N2CCC(c3ccccc3)CC2)cc1` (stereo not shown) [Example 55, N1,N1-dimethyl-N4-[2-(4-phenylpiperidin-1-yl)cyclohexyl]benzene-1,4-disulfonamide] it was 6.1 µM; in that of `Cc1nc(C)c(S(=O)(=O)Nc2ccccc2N2CCN(C(=O)OC(C)(C)C)CC2)s1` [Example 56, tert-butyl 4-(2-((2,4-dimethylthiazole)-5-sulfonamido)phenyl)piperazine-1-carboxylate], 3.6 µM.
In the case of `Cc1cc(S(=O)(=O)Nc2ccccc2N2CCN(C(=O)OC(C)(C)C)CC2)c(C)s1` [Example 59, tert-butyl 4-(2-((2,5-dimethylthiophene)-3-sulfonamido)phenyl)piperazine-1-carboxylate] it was 1.6 µM.
Under `Cc1cncc(S(=O)(=O)Nc2ccccc2N2CCN(C(=O)OC(C)(C)C)CC2)c1` [Example 60, tert-butyl 4-(2-((5-methylpyridine)-3-sulfonamido)phenyl)piperazine-carboxylate] stands 7.3 µM; under `CN(C)S(=O)(=O)c1ccc(S(=O)(=O)NC2CCCCC2N2CCOCC2)cc1` (stereo not shown) [Example 61, N1,N1-dimethyl-N4-[2-(morpholin-4-yl)cyclohexyl]benzene-1,4-disulfonamide], 39.5 µM; under `Cc1noc(C)c1S(=O)(=O)Nc1ccccc1N1CCN(C(=O)OC(C)(C)C)CC1` [Example 64, tert-butyl 4-(2-((3,5-dimethylisoxazole)-4-sulfonamido)phenyl)piperazine-1-carboxylate], 36.4 µM.
Consider `CCCOC1CCN(c2ccccc2NS(=O)(=O)c2ccc(C)cc2C)CC1` [Example 66, 2,4-dimethyl-N-(2-(4-propoxypiperidin-1-yl)phenyl)benzenesulfonamide], for which the EC50 amounted to 22.1 µM.
In the case of `CCCOC1CCN(c2ccccc2NS(=O)(=O)c2cc(C)oc2C)CC1` [Example 67, 2,5-dimethyl-N-(2-(4-propoxypiperidin-1-yl)phenyl)furan-3-sulfonamide] it was 37.8 µM.
In the case of `CCC(=O)N1CCN(c2ccccc2NS(=O)(=O)c2ccc(S(=O)(=O)N(C)C)cc2)CC1` [Example 71, N1,N1-dimethyl-N4-[2-(4-propanoylpiperazin-1-yl)phenyl]benzene-1,4-disulfonamide] it was 17.3 µM; in that of `CN1CCc2cc(S(=O)(=O)Nc3ccccc3N3CCN(C(=O)OC(C)(C)C)CC3)ccc21` [Example 72, tert-butyl 4-(2-((l-methylindoline)-5-sulfonamido)phenyl)piperazine-1-carboxylate], 3 µM; in that of `CN(C)S(=O)(=O)c1ccc(S(=O)(=O)Nc2ccccc2N2CCN(C(=O)c3cccs3)CC2)cc1` [Example 79, N1,N1-dimethyl-N4-{2-[4-(thiophene-2-carbonyl)piperazin-1-yl]phenyl}benzene-1,4-disulfonamide], 8.8 µM.
For `Cc1ncsc1C(=O)N1CCN(c2ccccc2NS(=O)(=O)c2ccc(S(=O)(=O)N(C)C)cc2)CC1` [Example 80, N1,N1-dimethyl-N4-{2-[4-(4-methyl-1,3-thiazole-5-carbonyl)piperazin-1-yl]phenyl}benzene-1,4-disulfonamide], the EC50 was 18.9 µM.
Take `CN(C)S(=O)(=O)c1ccc(S(=O)(=O)Nc2ccccc2N2CCN(C(=O)Cc3cccs3)CC2)cc1` [Example 81, N1,N1-dimethyl-N4-(2-{4-[2-(thiophen-2-yl)acetyl]piperazin-1-yl}phenyl)benzene-1,4-disulfonamide]: the EC50 is 11.1 µM.
Under `CN(C)S(=O)(=O)c1ccc(S(=O)(=O)Nc2ccccc2N2CCC(Oc3cccnc3)CC2)cc1` [Example 86, N1,N1-dimethyl-N4-{2-[4-(pyridin-3-yloxy)piperidin-1-yl]phenyl}benzene-1,4-disulfonamide] stands 5.7 µM; under `CCCNC(=O)C1CCN(c2ccccc2NS(=O)(=O)c2ccc(S(=O)(=O)N(C)C)cc2)CC1` [Example 87, 1-{2-[4-(dimethylsulfamoyl)benzenesulfonamido]phenyl}-N-propylpiperidine-4-carboxamide], 18.5 µM; under `CN(C)S(=O)(=O)c1ccc(S(=O)(=O)Nc2ccccc2N2CCC(Oc3ncccn3)CC2)cc1` [Example 89], 3.2 µM.
In the case of `Cc1ccc(S(=O)(=O)Nc2ccccc2N2CCN(C(=O)OC(C)(C)C)CC2)c2cccnc12` [Example 95, tert-butyl 4-(2-((8-methylquinoline)-5-sulfonamido)phenyl)piperazine-1-carboxylate] it was 10.7 µM; in that of `Cc1cc(S(=O)(=O)Nc2ccccc2N2CCC(Oc3ccccn3)CC2)c(C)s1` [Example 97, 2,5-dimethyl-N-(2-(4-(pyridin-2-yloxy)piperidin-1-yl)phenyl)thiophene-3-sulfonamide], 2.8 µM; in that of `Cc1ccc(S(=O)(=O)Nc2ccccc2N2CCC(Oc3ccccn3)CC2)cn1` [Example 98, 6-methyl-N-(2-(4-(pyridin-2-yloxy)piperidin-1-yl)phenyl)pyridine-3-sulfonamide], 3.3 µM.
In the case of `CN(C)S(=O)(=O)c1ccc(S(=O)(=O)Nc2ccccc2N2CCOC(c3ccccc3)C2)cc1` (stereo not shown) [Example 100, N1,N1-dimethyl-N4-(2-(2-phenylmorpholino)phenyl)benzene-1,4-disulfonamide], the EC50 came out at 6.8 µM.
Take `CN(C)S(=O)(=O)c1ccc(S(=O)(=O)Nc2ccccc2N2CCOC(Cc3ccccc3)C2)cc1` (stereo not shown) [Example 101, N1-(2-(2-benzylmorpholino)phenyl)-N4,N4-dimethylbenzene-1,4-disulfonamide]: the EC50 amounted to 4 µM.
In the case of `CC(C)N(C(=O)c1ccc(S(C)(=O)=O)cc1)c1ccccc1N1CCC(Oc2cnccn2)CC1` [Example 103, N-isopropyl-4-(methylsulfonyl)-N-(2-(4-(pyrazin-2-yloxy)piperidin-1-yl)phenyl)benzamide] it was 14.8 µM.
Under `COC(=O)C1CCN(c2ccccc2NS(=O)(=O)c2ccc(S(=O)(=O)N(C)C)cc2)CC1` [Example 105, methyl 1-(2-((4-(N,N-dimethylsulfamoyl)phenyl)sulfonamido)phenyl)piperidine-4-carboxylate] stands 18 µM; under `CN(C)S(=O)(=O)c1ccc(S(=O)(=O)Nc2ccccc2N2CCC(Oc3ccncc3)CC2)cc1` [Example 106, N1,N1-dimethyl-N4-(2-(4-(pyridin-4-yloxy)piperidin-1-yl)phenyl)benzene-1,4-disulfonamide], 8.6 µM.

For the origin of these results see patent publication US20230010299A1, “HETEROCYCLIC TRPML1 AGONISTS” (LIBRA THERAPEUTICS, INC., priority 2019, published 2023).
